# Assay results published in patent US5135937A, “Cycloalkylene azoles and pharmaceutical preparations obtained therefrom” (Schering Aktiengesellschaft, priority 1989, dated 1992).
# “And” between values parts separate entries of the source, which are not always exact repeats. Equal values may be shown once. Where a name gives a salt, the structure may show the parent alone. Read-outs that look alike come from different tables or passages of the source.
# Legend:
# [1] = system: Androstenedione-Induced Uterus Growth; experiment: Influence on androstenedione-induced uterus growth in infantile rats (Test b); type: in vivo, rat; settings: 3 days; for Uterus Weight: infantile female rats; for Inhibition in % (of uterus growth, based on the androstenedione group): vehicle basic value deducted
# Procedure: (§1) The following compounds are examined as representative:
# Influence on Androstenedione-Induced Uterus Growth in Infantile Rats
# Infantile female rats receive once daily the compound to be tested in combination with androstenedione over a period of three days. One group receives only androstenedione, and a further group only the vehicle. One day after the last treatment, the animals are sacrificed by decapitation and exsanguination, and the fresh uterus weights (without content) are determined. The uterus weights are calculated for mg/100 g body weight. The average value and standard deviation are calculated for each group. Variance analysis is used to check the significances of the differences with respect to the control group (androstenedione group and, respectively, vehicle group). Furthermore, the percentage inhibition of uterus growth is determined, based on the androstenedione group. In this determination, the uterus weight of the vehicle group (basic value) is deducted from the corresponding weight of the androstenedione group. The individual dosage groups, after subtracting the basic value, are based on the thus-obtained value.
# aromatase = target: T1, aromatase (Homo sapiens, UniProt P11511); experiment: Aromatase inhibition in human placenta (Test a): microsomes, release of 3H2O from [1β-3H]-androstenedione, Ki by Dixon plot; type: biochemical
# T1 construct: microsomes obtained from human placenta; from tissue; host or cells: human placenta (microsomes)
# T1 sequence (P11511 1-503): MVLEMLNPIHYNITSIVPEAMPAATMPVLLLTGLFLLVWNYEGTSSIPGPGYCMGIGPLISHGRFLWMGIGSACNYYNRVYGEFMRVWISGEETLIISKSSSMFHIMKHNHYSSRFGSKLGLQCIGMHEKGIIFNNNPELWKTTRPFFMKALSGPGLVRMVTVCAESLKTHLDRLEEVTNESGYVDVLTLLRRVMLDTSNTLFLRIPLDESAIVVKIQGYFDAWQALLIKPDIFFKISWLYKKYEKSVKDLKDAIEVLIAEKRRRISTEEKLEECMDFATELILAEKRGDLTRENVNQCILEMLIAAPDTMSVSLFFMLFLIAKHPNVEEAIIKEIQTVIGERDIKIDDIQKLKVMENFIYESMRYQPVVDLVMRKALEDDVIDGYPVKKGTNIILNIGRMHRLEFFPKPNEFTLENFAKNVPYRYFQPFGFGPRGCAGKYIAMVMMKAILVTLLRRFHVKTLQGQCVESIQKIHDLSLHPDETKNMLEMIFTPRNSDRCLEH
# Procedure: as §1
# Aromatase Inhibition in Human Placenta
# The abilities of the compounds of inhibiting the enzyme system of aromatase is tested on microsomes obtained from human placenta.
# [2] = compound + AD, 0.2 + 30 mg/kg/day, hydrochloride, 30 mg/kg/day
# [3] = compound + AD, 2.0 + 30 mg/kg/day
# [4] = human placenta microsomes, [1β-3H]-androstenedione substrate, 4-OH-androstenedione as reference compound, read-out: Ki, Aromatase
# [5] = compound + AD, 0.2 + 30 mg/kg/day
SMILES,"Uterus Weight [1, 3]","Inhibition in % (of uterus growth, based on the androstenedione group) [1, 3]",Ki (aromatase; [4]),further results
"N#Cc1ccc(C2CCCc3cncn32)cc1 (racemic) [D, 5-(p-cyanophenyl)-5,6,7,8tetrahydroimidazo[-1,5a]pyridine, hydrochloride, reference compound]",–,–,–,"Uterus Weight [1, 2]: 69.9 ± 6.6 mg/100 g BW and 83.2 ± 6.9 mg/100 g BW; Inhibition in % (of uterus growth, based on the androstenedione group) [1, 2]: 84% and 86%"
"C[C@]12CCC(=O)C(O)=C1CC[C@@H]1[C@@H]2CC[C@]2(C)C(=O)CC[C@@H]12 [4-OH-Androstenedione, reference compound]",–,–,–,"Ki (aromatase; Ki, Aromatase): 62 nM and 41 nM"
"C[C@]12CCC(=O)C=C1CC[C@@H]1[C@@H]2CC[C@]2(C)C(=O)CC[C@@H]12 [Androstenedione, reference compound]",–,–,–,Uterus Weight ([1]; androstenedione (AD) alone 30 mg/kg/day): 213.6 ± 32.4 mg/100 g BW and 183.5 ± 22.7 mg/100 g BW
"N#Cc1ccc(C(=C2CCCC2)n2ccnc2)cc1 [C, 4-[1-Cyclopentylidene-1-(1-imidazolyl)methyl]benzonitrile]",69.2 ± 5.7 mg/100 g BW,85%,–,–
"Cl.N#Cc1ccc(C(=C2CCCCC2)n2ccnc2)cc1 [Compound A, 4-[1-Cyclohexylidene-1-(1-imidazolyl)methyl]benzonitrile, hydrochloride]",100.1 ± 18.8 mg/100 g BW,74%,0.19 nM,"Uterus Weight [1, 5]: 108.2 ± 11.9 mg/100 g BW; Inhibition in % (of uterus growth, based on the androstenedione group) [1, 5]: 69%"
"N#Cc1ccc(C(=C2CCCCC2)n2ccnc2)cc1 [Compound B, 4-[1-Cyclohexylidene-1-(1-imidazolyl)methyl]benzonitrile]",72.5 ± 10.3 mg/100 g BW,82%,0.48 nM,–
